Reference: article PMC6661759 (BMC Chemistry, 2019)
Values after ≈ are worked out from the molar mass of the structure shown. Like-named read-outs stand apart in the source and are kept apart here.

Columns and labels:
Jack Bean Urease [1] = target: T1, Jack Bean Urease (Canavalia ensiformis, UniProt P07374); experiment: biochemical
T1 construct: purchased Sigma Aldrich
Method: (§1) As structure of urease from different sources has common structural features therefore urease inhibition studies were carried out on jack bean urease. Inhibition studies were carried out by indophenol technique described by Weatherburn in which measurement of concentration of ammonia released during the reaction between reagents and compounds were done.
Urease enzyme inhibition investigation studies for all synthesized compounds were done by the method developed by Weatherburn (1967) named Indophenol against Jack Bean Urease. Briefly, incubation of solution of Jack bean protein 25 μL was done at temperature of 30 °C for a period of 15 min with 55 μL of buffers solution having 100 mM urea and 5 μL of test solution in 96-well plates. 45 μL phenol solution composing phenol 1% w/v and solution of sodium nitroprusside 0.005% w/v and alkali reagent 70 μL composed of sodium hydroxide 0.5% w/v and active sodium hypochloride solution 0.1% were mixed to every well. The measurement of increase in absorption at 625 nm was done after 50 min by help of a microplate reader (Molecular Device, USA). Readings were recorded in triplicate set in a final volume of 200 μL using thiourea as standard. Each assay was performed at pH 8.2 (0.01 M K2HPO4.3H2O, 0.01 M […] and 1 mM EDTA). Calculation of Inhibition in percentage of synthesized derivatives was done by the formula given as: I\%=AControl-ASample/AControl×100 where, Acontrol is control absorbance; Asample is test absorbance.

[2] = DPPH assay for antioxidant activity; conditions: DPPH free radical scavenging, mean SEM
Method: as §1
Antioxidant nature of the synthesized derivatives was measured by the help of DPPH method. According to this method synthesized compounds were allowed to react for 0.5 h at 37 °C with stable free radical, 1, 1-diphenyl-2-picrylhydrazyl radical (DPPH). The DPPH was taken in a concentration of 300 µM. Decrease in value of absorption at 515 nm was measured after the period of incubation using a microplate reader using ascorbic acid as a standard. Molecule capable of donating proton to DPPH and cause its reduction acts as an antioxidant. Following reduction deep violet coloured DPPH solution changes to yellow depending upon the nature of antioxidant compound, which brings a measurable decrease in value of absorption at 517 nm. The proton or electron donating capacity of the derivative was estimated from the fading of deep purple colored methanolic solution of 1, 1-diphenylpicrylhydrazyl (DPPH). Incubation of mixture was done at room temperature for 30 min and measurements were done at 517 nm against blank. Calculation of percentage inhibition was done by following formula: I\%=AControl-ASample/AControl×100 where, Acontrol is control absorbance; Asample is test absorbance.

[3] = test system: H. pylori bacterium (DSM 4867); experiment: Anti-H. pylori activity, well diffusion technique; format: cell-based, Helicobacter pylori; conditions: H. pylori DSM 4867, 2500 µg per well, 24–48 h
Method: (§2) Derivatives C4a, C4b and C4d which were found best in urease inhibition and antioxidant activity as well as in terms of docking score were tested further against antibacterial efficiency against Helicobacter pylori DSM 4867 using AHA as a standard and DMSO as control. […] In-vitro results concluded that compound C4a bearing nitro and chloro group at 2nd and 4th position indicated excellent antibacterial action against H. Pylori probably by interacting with the target protein efficiently and inhibited the growth of pathogenic bacteria.
(§3) Since H. Pylori is not acidophilic in nature therefore it requires urease, which produced ammonia by hydrolyzing urea present in stomach, for its survival in acidic gastric medium. Because of virulence nature of urease researchers decided to target its inhibition for anti-H. Pylori drugs. Novel synthesized derivatives were investigated against H. pylori bacterium (DSM 4867, AHA as standard) for their antibacterial activity by using Well diffusion technique. The stock solution of compounds in DMSO (1000 μg/mL) were prepared. Cell suspension was prepared from culture grown on BHI broth. The cell suspensions of all the cultures were adjusted to 1–2 × 10^5 cells/mL. Helicobacter pylori (100 µL) was inoculated by spread plate technique on agar plates (90 mm). […] MIC was determined against Helicobacter pylori by micro broth dilution technique as per NCCLS method.

[4] = test system: Helicobacter pylori DSM 4867; experiment: MIC against Helicobacter pylori by micro broth dilution technique; format: cell-based; conditions: H. pylori DSM 4867, micro broth dilution
Method: as §2, §3

Jack Bean Urease [5] = target: T1, Jack Bean Urease; experiment: Enzyme kinetics, Lineweaver-Burk plot; format: biochemical; conditions: varying urea, phosphate buffer, 1 mM EDTA, pH 8.2
Method: Study of inhibitory effect of chlorogenic derivatives on jack bean urease was performed to check the inhibitory potential, kinetics studies and mechanism of inhibition in phosphate buffer and 1 mM EDTA at pH 8.2. […] Competitive inhibition infers that compound C4a will probably compete for binding at the site of substrate in enzyme active site pocket.
(substrate concentration) against 1/[V] velocity. To examine the mode of inhibition compound C4a was solubilized in DMSO and further dilutions were prepared accordingly. Plot was prepared by using varying concentration of substrate (urea) in with varying concentration of inhibitor C4a. Inhibitory constant values (Ki) were determined as the interaction on the X-axis of the plots of the slope against different concentration of derivatives C4a. […] All experiments were performed in triplicate and kinetic study for interaction of enzyme with inhibitor was computed with Graphpad prism 7.0 software.

T1 sequence (P07374 whole entry, looked up): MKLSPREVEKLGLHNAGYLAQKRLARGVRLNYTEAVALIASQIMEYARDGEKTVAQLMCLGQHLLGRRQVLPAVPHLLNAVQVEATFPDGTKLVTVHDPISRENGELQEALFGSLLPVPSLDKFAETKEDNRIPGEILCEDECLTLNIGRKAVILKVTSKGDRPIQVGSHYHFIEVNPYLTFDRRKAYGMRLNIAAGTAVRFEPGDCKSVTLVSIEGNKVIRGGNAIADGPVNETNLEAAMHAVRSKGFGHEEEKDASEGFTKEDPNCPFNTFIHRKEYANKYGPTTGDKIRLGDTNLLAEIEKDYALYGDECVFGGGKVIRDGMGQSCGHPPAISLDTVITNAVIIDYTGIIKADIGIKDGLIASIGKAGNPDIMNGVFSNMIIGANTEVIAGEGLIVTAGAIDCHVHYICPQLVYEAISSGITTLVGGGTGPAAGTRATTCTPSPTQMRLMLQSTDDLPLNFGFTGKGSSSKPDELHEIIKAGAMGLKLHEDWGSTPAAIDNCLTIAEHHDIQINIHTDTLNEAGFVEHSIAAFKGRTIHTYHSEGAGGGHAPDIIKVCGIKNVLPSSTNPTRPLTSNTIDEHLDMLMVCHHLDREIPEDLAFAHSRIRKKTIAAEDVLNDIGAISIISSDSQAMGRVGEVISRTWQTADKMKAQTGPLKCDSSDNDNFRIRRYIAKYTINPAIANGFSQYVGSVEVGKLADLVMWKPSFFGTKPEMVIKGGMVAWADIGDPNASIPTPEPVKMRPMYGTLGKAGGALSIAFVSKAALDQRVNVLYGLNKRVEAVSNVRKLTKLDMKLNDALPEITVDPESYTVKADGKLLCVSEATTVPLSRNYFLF

| SMILES | IC50 (Jack Bean Urease [1]) [µM] | IC50 [2] [µM] | also measured |
| --- | --- | --- | --- |
| O=C(/C=C/c1ccc(O)c(O)c1)O[C@@H]1C[C@](O)(C(=O)O)C[C@@H](O)[C@H]1O [CHLG, chlorogenic acid, reference compound] | 22.68 ± 0.006 | – | – |
| NC(N)=S [Thiourea, thiourea, reference compound] | – | – | IC50 (Jack Bean Urease [1]; jack bean urease, indophenol method, pH 8.2, mean SEM, read-out: IC50 (µM) urease inhibition): 22.8 ± 0.011 µM |
| Cc1ccccc1NC(=O)[C@]1(O)CC(O)C(O)[C@H](OC(=O)/C=C/c2ccc(O)c(O)c2)C1 (stereo partly drawn) [C4g, (1R, 5S)-2,3,5-trihydroxy-5-((2-methylphenyl)carbamoyl)cyclohexyl (2E)-3-(3,4-dihydroxyphenyl)prop-2-enoate] | 21.5 ± 0.032 | 7.75 ± 0.011 | – |
| O=C(/C=C/c1ccc(O)c(O)c1)O[C@@H]1C[C@](O)(C(=O)Nc2ccc(Br)cc2)CC(O)C1O (stereo partly drawn) [C4c, (1R, 5S)-5-((4-bromophenyl)carbamoyl)-2,3,5-trihydroxycyclohexyl (2E)-3-(3,4-dihydroxyphenyl)prop-2-enoate] | 22.02 ± 0.027 | 8.48 ± 0.026 | – |
| O=C(/C=C/c1ccc(O)c(O)c1)O[C@@H]1C[C@](O)(C(=O)Nc2cccc([N+](=O)[O-])c2)CC(O)C1O (stereo partly drawn) [C4d, (1R, 5S)-2,3,5-trihydroxy-5-((3-nitrophenyl)carbamoyl)cyclohexyl (2E)-3-(3,4-dihydroxyphenyl)prop-2-enoate] | 13.8 ± 0.041 | 5.34 ± 0.007 | – |
| O=C(/C=C/c1ccc(O)c(O)c1)O[C@@H]1C[C@](O)(C(=O)Nc2ccccc2F)CC(O)C1O (stereo partly drawn) [C4h, (1R, 5S)-5-((2-fluorophenyl)carbamoyl)-2,3,5-trihydroxycyclohexyl (2E)-3-(3,4-dihydroxyphenyl)prop-2-enoate] | 21.24 ± 0.016 | 7.23 ± 0.008 | – |
| CC(=O)NO [AHA, acetohydroxamic acid, reference compound] | – | – | zone of inhibition [3]: 9.00 ± 0.50 mm; MIC [4]: 1000 µg/mL (≈ 13300 µM) |
| COc1cccc(NC(=O)[C@]2(O)CC(O)C(O)[C@H](OC(=O)/C=C/c3ccc(O)c(O)c3)C2)c1 (stereo partly drawn) [C4e, (1R, 5S)-2,3,5-trihydroxy-5-((3-methoxyphenyl)carbamoyl) cyclohexyl (2E)-3-(3,4-dihydroxyphenyl)prop-2-enoate] | 20.6 ± 0.001 | 6.85 ± 0.02 | – |
| O=C(/C=C/c1ccc(O)c(O)c1)O[C@@H]1C[C@](O)(C(=O)Nc2ccc(Cl)cc2[N+](=O)[O-])CC(O)C1O (stereo partly drawn) [C4b, (1R, 5S)-5-((4-chloro-2-nitrophenyl)carbamoyl)-2,3,5-trihydroxycyclohexyl (2E)-3-(3,4-dihydroxyphenyl)prop-2-enoate] | 15.86 ± 0.004 | 6.01 ± 0.005 | – |
| O=C(/C=C/c1ccc(O)c(O)c1)O[C@@H]1C[C@](O)(C(=O)Nc2ccc([N+](=O)[O-])cc2Cl)CC(O)C1O (stereo partly drawn) [C4a, (1R, 5S)-5-((2-chloro-4-nitrophenyl)carbamoyl)-2,3,5-trihydroxycyclohexyl (2E)-3-(3,4-dihydroxyphenyl)prop-2-enoate] | 11.01 ± 0.013 | 5.1 ± 0.018 | mode of inhibition (Jack Bean Urease [5]): competitive type of Inhibition; zone of inhibition [3]: 10.00 ± 0.00 mm; MIC ([4]; Helicobacter pylori, DSM4867, read-out: MIC): 500 µg/mL (≈ 983 µM) |
| COc1ccc(NC(=O)[C@]2(O)CC(O)C(O)[C@H](OC(=O)/C=C/c3ccc(O)c(O)c3)C2)cc1 (stereo partly drawn) [C4f, (1R, 5S)-2,3,5-trihydroxy-5-((4-methoxyphenyl)carbamoyl)cyclohexyl (2E)-3-(3,4-dihydroxyphenyl)prop-2-enoate] | 21.83 ± 0.009 | 7.89 ± 0.006 | – |
| O=C1O[C@H]([C@@H](O)CO)C(O)=C1O [Ascorbic acid, ascorbic acid, reference compound] | – | 8.59 ± 0.004 | – |
